Test results taken from ChEMBL document CHEMBL1201862, “PubChem BioAssay data set” (2004).
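Five concentrations, 48 hours, 96-well plates. GI50 is the concentration that inhibits growth by half.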 Calls of active or inactive are those of the source. Rule as the data show it: active = GI50 up to about 1.1 µM and inactive = higher. Where a SMILES comes first, the peptide text is derived from it. [ ]: non-standard residue; d: D form. Ac5c = NC1(C(=O)O)CCCC1

What was measured:
Test in all cases: NCI tumour cell line growth inhibition, 48 h
U-251 = tested on: U-251
UACC-62 = tested on: UACC-62
OVCAR-8 = tested on: OVCAR-8
HOP-92 = tested on: HOP-92
NCI-H23 = tested on: NCI-H23
CCRF-CEM = tested on: CCRF-CEM
NCI/ADR-RES = tested on: NCI/ADR-RES
MDA-MB-435 = tested on: MDA-MB-435
SNB-75 = tested on: SNB-75
OVCAR-4 = tested on: OVCAR-4
786-0 = tested on: 786-0
NCI-H226 = tested on: NCI-H226
SF-295 = tested on: SF-295
KM12 = tested on: KM12
TK-10 = tested on: TK-10
HCT-116 = tested on: HCT-116
K562 = tested on: K562
A549 = tested on: A549
BT-549 = tested on: BT-549

Measured: GI50

CCCCc1ccc(C#CC#Cc2ccc(CCCC)s2)s1
inactive: U-251 > 100 µM | UACC-62 > 100 µM | OVCAR-8 > 100 µM | HOP-92 > 100 µM | NCI-H23 > 100 µM | CCRF-CEM 4.39 µM | NCI/ADR-RES > 100 µM | MDA-MB-435 > 100 µM | SNB-75 > 100 µM | OVCAR-4 > 100 µM | 786-0 > 100 µM | NCI-H226 > 100 µM | SF-295 > 100 µM | KM12 > 100 µM | TK-10 > 100 µM | HCT-116 > 100 µM

Clc1ccc2nc3[nH]nc(Cl)c3nc2c1
inactive: U-251 60.7 µM | K562 52.4 µM | UACC-62 45.3 µM | OVCAR-8 71.3 µM | NCI-H23 48.1 µM | NCI/ADR-RES 56.2 µM | MDA-MB-435 77.8 µM | SNB-75 48.6 µM | OVCAR-4 63.2 µM | 786-0 61.5 µM | A549 36.8 µM | BT-549 28.4 µM | SF-295 72.6 µM | KM12 59.3 µM | TK-10 56.5 µM | HCT-116 42.9 µM

COc1ccc(C(CC(=O)c2ccccc2)C(=O)c2ccc3c(c2)OCO3)cc1 (stereo not drawn)
inactive: U-251 > 100 µM | K562 > 100 µM | UACC-62 > 100 µM | OVCAR-8 > 100 µM | NCI-H23 > 100 µM | CCRF-CEM > 100 µM | NCI/ADR-RES > 100 µM | MDA-MB-435 > 100 µM | SNB-75 > 100 µM | OVCAR-4 > 10 µM | 786-0 > 100 µM | NCI-H226 > 100 µM | A549 > 100 µM | SF-295 > 100 µM | KM12 > 100 µM | TK-10 > 100 µM

O=[N+]([O-])c1ccc2c(c1)c(OCc1ccccc1)nn2Cc1ccccc1
inactive: K562 > 100 µM | UACC-62 80.4 µM | OVCAR-8 > 100 µM | NCI-H23 > 100 µM | CCRF-CEM 40.1 µM | NCI/ADR-RES > 100 µM | MDA-MB-435 > 100 µM | 786-0 55 µM | NCI-H226 > 100 µM | A549 64.1 µM | BT-549 71.8 µM | SF-295 51.2 µM | KM12 > 100 µM | TK-10 62.1 µM

CCCCSC1=N/C(=C\c2ccco2)C(=O)N1
inactive: U-251 74.6 µM | UACC-62 42.1 µM | OVCAR-8 44.1 µM | NCI-H23 36.3 µM | CCRF-CEM 24.2 µM | NCI/ADR-RES 31.9 µM | MDA-MB-435 36.7 µM | SNB-75 25.9 µM | OVCAR-4 60.1 µM | 786-0 87.3 µM | NCI-H226 51.5 µM | A549 43.6 µM | BT-549 33.2 µM | SF-295 45.5 µM | KM12 37.6 µM | TK-10 59.6 µM | HCT-116 56.1 µM

CSc1c(C#N)c(=O)n(N)c2c1c(C)nn2-c1ccccc1
inactive: U-251 28.1 µM | K562 31 µM | UACC-62 22 µM | OVCAR-8 20.8 µM | NCI-H23 18.9 µM | CCRF-CEM 19.4 µM | NCI/ADR-RES 24.3 µM | MDA-MB-435 30.9 µM | SNB-75 28.2 µM | OVCAR-4 23.6 µM | 786-0 40.5 µM | NCI-H226 24.8 µM | A549 21.9 µM | BT-549 30.1 µM | KM12 34.2 µM | TK-10 30.1 µM | HCT-116 23.7 µM

C/C(=C\COP(=O)(O)OP(=O)(O)O)CC/C=C(\C)CNc1ccc([N+](=O)[O-])cc1
inactive: U-251 > 100 µM | K562 > 100 µM | UACC-62 > 100 µM | OVCAR-8 > 100 µM | HOP-92 > 100 µM | NCI-H23 > 100 µM | CCRF-CEM > 100 µM | NCI/ADR-RES > 100 µM | MDA-MB-435 > 100 µM | SNB-75 > 100 µM | OVCAR-4 > 100 µM | 786-0 > 100 µM | NCI-H226 > 100 µM | A549 > 100 µM | SF-295 > 100 µM | KM12 > 100 µM | TK-10 > 100 µM | HCT-116 > 100 µM

Nc1nc2c(ncn2Cc2ccccc2CCO)c(=O)[nH]1
inactive: U-251 > 100 µM | K562 > 100 µM | UACC-62 > 100 µM | OVCAR-8 > 100 µM | HOP-92 > 100 µM | NCI-H23 > 100 µM | CCRF-CEM > 100 µM | SNB-75 > 100 µM | OVCAR-4 > 100 µM | 786-0 > 100 µM | NCI-H226 41 µM | A549 > 100 µM | SF-295 > 100 µM | KM12 > 100 µM | TK-10 > 100 µM

CCOC(=O)CNC1=Nc2ccccc2C(=O)N2CSCC12 (stereo not drawn)
inactive: U-251 > 100 µM | K562 > 100 µM | UACC-62 > 100 µM | OVCAR-8 > 100 µM | CCRF-CEM > 100 µM | NCI/ADR-RES > 100 µM | MDA-MB-435 > 100 µM | SNB-75 > 100 µM | OVCAR-4 > 100 µM | 786-0 > 100 µM | NCI-H226 > 100 µM | A549 > 100 µM | BT-549 > 100 µM | SF-295 > 100 µM | KM12 > 100 µM | TK-10 > 100 µM | HCT-116 > 100 µM

CN(CCO)CCCC1COc2ccccc2O1 (stereo not drawn)
inactive: U-251 > 100 µM | K562 > 100 µM | UACC-62 > 100 µM | OVCAR-8 > 100 µM | HOP-92 > 100 µM | NCI-H23 > 100 µM | CCRF-CEM > 100 µM | NCI/ADR-RES > 100 µM | SNB-75 > 100 µM | OVCAR-4 > 100 µM | 786-0 > 100 µM | NCI-H226 > 100 µM | A549 > 100 µM | BT-549 > 100 µM | SF-295 51.3 µM | TK-10 > 100 µM | HCT-116 > 100 µM

CC1(C#N)CC(C)(C)C(/C=C2/CC(C)(C)C(/C=C3/OC(=N)CC3(C)C)=N2)=N1 (stereo not drawn)
inactive: U-251 38.5 µM | K562 22.5 µM | UACC-62 20.7 µM | OVCAR-8 22.9 µM | HOP-92 12 µM | NCI-H23 22.8 µM | CCRF-CEM 32.4 µM | NCI/ADR-RES 18.2 µM | MDA-MB-435 21.7 µM | SNB-75 31 µM | OVCAR-4 20 µM | 786-0 24.9 µM | NCI-H226 40.6 µM | A549 29.5 µM | SF-295 23.7 µM | KM12 24.2 µM | TK-10 31 µM | HCT-116 28.9 µM

COC1(CCO)CC=CCC1(CCO)OC (stereo not drawn)
inactive: K562 > 100 µM | UACC-62 > 100 µM | OVCAR-8 > 100 µM | HOP-92 > 100 µM | CCRF-CEM > 100 µM | NCI/ADR-RES > 100 µM | SNB-75 > 100 µM | OVCAR-4 > 100 µM | 786-0 > 100 µM | NCI-H226 > 100 µM | A549 > 100 µM | BT-549 > 100 µM | SF-295 > 100 µM | KM12 > 100 µM | TK-10 > 100 µM | HCT-116 > 100 µM

O=C1CCCC1C(O)(C(F)(F)F)C(F)(F)F (stereo not drawn)
inactive: U-251 > 100 µM | K562 > 100 µM | UACC-62 > 100 µM | OVCAR-8 > 100 µM | HOP-92 > 100 µM | NCI-H23 > 100 µM | CCRF-CEM > 100 µM | NCI/ADR-RES > 100 µM | MDA-MB-435 > 100 µM | SNB-75 > 100 µM | OVCAR-4 > 100 µM | 786-0 > 100 µM | NCI-H226 > 100 µM | A549 > 100 µM | SF-295 > 100 µM | KM12 > 100 µM | TK-10 > 100 µM | HCT-116 > 100 µM

COc1c(Br)cc(/C=C(\C#N)c2cccnc2)cc1Br
inactive: U-251 36.3 µM | K562 80.9 µM | UACC-62 > 100 µM | OVCAR-8 53.8 µM | HOP-92 23.1 µM | NCI-H23 32.7 µM | CCRF-CEM > 100 µM | NCI/ADR-RES 34.9 µM | SNB-75 > 100 µM | OVCAR-4 81.5 µM | 786-0 > 100 µM | NCI-H226 33.7 µM | A549 53.1 µM | BT-549 30.5 µM | SF-295 52.7 µM | KM12 33.1 µM | TK-10 61.7 µM | HCT-116 > 100 µM

COC(CCC[N+](C)(C)C)CC[N+](C)(C)C (stereo not drawn)
inactive: U-251 > 100 µM | K562 > 100 µM | UACC-62 > 100 µM | OVCAR-8 > 100 µM | NCI-H23 > 100 µM | CCRF-CEM > 100 µM | NCI/ADR-RES > 100 µM | SNB-75 > 100 µM | OVCAR-4 > 100 µM | 786-0 > 100 µM | NCI-H226 > 100 µM | A549 > 100 µM | BT-549 > 100 µM | SF-295 > 100 µM | TK-10 > 100 µM | HCT-116 > 100 µM

Cc1nnc2sc(-c3ccc(N)cc3)nn12
inactive: K562 > 100 µM | UACC-62 > 100 µM | OVCAR-8 > 100 µM | HOP-92 > 100 µM | NCI-H23 > 100 µM | CCRF-CEM > 100 µM | NCI/ADR-RES > 100 µM | MDA-MB-435 > 100 µM | SNB-75 21.3 µM | OVCAR-4 > 100 µM | 786-0 > 100 µM | NCI-H226 > 100 µM | A549 > 100 µM | SF-295 > 100 µM | KM12 > 100 µM | TK-10 > 100 µM | HCT-116 > 100 µM

COC(=O)C1(NC(=O)C(C)NC(=O)C(CCCCN)NC(=O)C(CC(C)C)NC(C)=O)CCCC1 (stereo not drawn) (Ac-LKA[Ac5c]-OMe; configuration not given here)
inactive: K562 > 100 µM | OVCAR-8 > 100 µM | CCRF-CEM > 100 µM | MDA-MB-435 > 100 µM | SNB-75 > 100 µM | OVCAR-4 > 10 µM | 786-0 > 100 µM | A549 > 100 µM | SF-295 > 100 µM | KM12 > 100 µM | TK-10 > 100 µM | HCT-116 > 100 µM
